Assay results: publication PMC11247629, “New Lipophilic Hydroxamates as Promising Trypanocidal Agents: Design, Synthesis, SAR, and Conformational Behavior Studies” (ACS Medicinal Chemistry Letters, 2024)

Key:
[1] = system: L6 cells (a rat myoblast line); assay: Cytotoxicity against cultured rat skeletal myoblast L6 cells (resazurin); format: cell-based; settings: for Selectivity indices (SIs): ratio of the IC50 for L6 cells and T. brucei; for IC50: cultured rat skeletal myoblast L6 cells, mean of triplicate ± SEM
Experimental: (§1) To determine cytotoxicity, L6 cells (a rat myoblast line) were seeded at 1x104 mL−1 into 96-well microtiter plates (200 μL of growth medium), at a range of compound concentrations. After 6 days incubation at 37°C, 20 μL resazurin (0.125 mg mL−1) was added to each well. The plates were incubated for 6 hours, and fluorescence determined by plate reader, as above. […]

[2] = as above; format: cell-based; settings: rat, L6 rat skeletal myoblast cells, cultured rat skeletal myoblast L6 cells; mean of triplicate ± SEM
Experimental: as §1

[3] = system: bloodstream form T. b. brucei (strain 221); assay: Growth inhibition of cultured bloodstream-form T. brucei (resazurin); format: cell-based, Trypanosoma brucei; settings: for times more potent than the unsubstituted parent / times more potent than the nonmethylated counterpart / times more potent than 18: T. brucei IC50; for times more potent than the unsubstituted parent: 19 and 20 vs 18, 25 vs 24, 28 vs 27; for IC50 / IC90: cultured bloodstream-form Trypanosoma brucei, pH = 7.4, mean of triplicate ± SEM; for IC50: concentration inhibiting growth by 50%; for IC90: concentration inhibiting growth by 90%; for trypanocidal activity (in words): bloodstream-form T. brucei; for times more potent than the nonmethylated counterpart: 21 vs 18, 22 vs 19, 23 vs 20, 26 vs 24
Experimental: The new hydroxamic acid derivatives 18–28 were tested against bloodstream-form T. brucei in vitro. The results are presented in Table 1, and are expressed as IC50 and IC90 values. […]
Reference: minimized structure, heterocycle and adamantane cage).
IV. Experimental procedures for the biological evaluation of the compounds
Growth inhibition analysis was carried out using bloodstream form T. b. brucei (strain 221) cultured at
37 °C, as previously described.8 Briefly, experiments were performed using 96-well microtiter plates (200
μL volumes), with each assay initiated with 2.5 x10^4 parasites mL−1, and test compounds then added at 7
concentrations in a range that had been established in preliminary experiments to encompass both EC50
and EC90 values. Plates were incubated for 48 hours, resazurin (20 μL at 0.125 mg mL−1) was then added,
and the plates re-incubated for 16 hours. Fluorescence was determined using a BMG FLUOstar Omega plate
reader (excitation 545 nm, emission 590 nm), and the data analysed using GraphPad Prism 9.0 software.
The data are expressed as IC50/IC90 ± SD, and are the average of 3 independent replicates. […]

T. brucei = settings: spiro carbocyclic 2,6-DKP-1-acetohydroxamic acids 1-5 reported previously; cited from earlier work

Compound	Selectivity indices (SIs) [1]	IC50 ([3]; Trypanosoma brucei)	IC90 ([3]; Trypanosoma brucei)	IC50 (T. brucei)	also measured
CC(C)C[C@@H]1NC2(CCCCCC2)C(=O)N(CC(=O)NCC(=O)NO)C1=O [Compound 28]	235	1.65 ± 0.13 µM	3.33 ± 0.13 µM	–	IC50 at 6 days [2]: 390 ± 6 µM; times more potent than the unsubstituted parent [3]: > 18 fold
CN1CC(=O)N(CC(=O)NO)C(=O)C12CCCCCC2 [Compound 5b]	–	–	–	0.285 µM	–
Cl.O=C(CNC(=O)CN1C(=O)[C@H](Cc2ccccc2)NC2(C1=O)C1CC3CC(C1)CC2C3)NO (stereo partly drawn) [Compound 20.HCl]	16	–	–	–	IC50 [1]: 25 µM; IC50 [3]: 1.53 µM; IC90 [3]: 4.26 µM
O=C(CN1C(=O)[C@H](Cc2ccccc2)NC2(C1=O)C1CC3CC(C1)CC2C3)NO (stereo partly drawn) [Compound 1f]	–	–	–	0.0068 µM	–
CC(C)C[C@@H]1NC2(C(=O)N(CC(=O)NCC(=O)NO)C1=O)C1CC3CC(C1)CC2C3 (stereo partly drawn) [Compound 19]	90	0.4 ± 0.09 µM	0.98 ± 0.05 µM	–	IC50 at 6 days [2]: 35 ± 4 µM; times more potent than the unsubstituted parent [3]: 62 fold
C[C@@H]1NC2(C(=O)N(CC(=O)NO)C1=O)C1CC3CC(C1)CC2C3 (stereo partly drawn) [Compound 1c]	–	–	–	0.134 µM	–
O=C(CN1C(=O)C(Cc2ccc(Cl)cc2)NC2(C1=O)C1CC3CC(C1)CC2C3)NO (stereo not drawn) [Compound 3]	–	–	–	0.032 µM	–
O=C(CN1C(=O)CNC2(CCCCCC2)C1=O)NO [Compound 5a]	–	–	–	1.87 µM	–
O=C(CN1C(=O)C(Cc2ccccc2)NC2(C1=O)C1CC3CC(C1)CC2C3)NO (stereo not drawn) [Compound 2]	–	–	–	0.017 µM	–
O=C(CN1C(=O)[C@H](Cc2ccccc2)NC2(CCCCCCC2)C1=O)NO [Compound 4f]	–	–	–	0.029 µM	–
O=C(CNC(=O)CN1C(=O)CNC2(C1=O)C1CC3CC(C1)CC2C3)NO (stereo not drawn) [Compound 18]	–	25 ± 3 µM	36 ± 2 µM	–	fold loss in potency ([3]; T. brucei IC50 relative to compound 1a (insertion of acetamido portion)): 278 fold; trypanocidal activity (in words) [3]: marginal activity
O=C(CNC(=O)CN1C(=O)[C@H](Cc2ccccc2)NC2(C1=O)C1CC3CC(C1)CC2C3)NO (stereo partly drawn) [Compound 20]	24	1.23 ± 0.2 µM	4.88 ± 0.74 µM	–	IC50 at 6 days [2]: 29 ± 2 µM; times more potent than the unsubstituted parent [3]: 20 fold
CSCC[C@@H]1NC2(C(=O)N(CC(=O)NO)C1=O)C1CC3CC(C1)CC2C3 (stereo partly drawn) [Compound 1e]	–	–	–	0.168 µM	–
CC(C)C[C@@H]1NC2(C(=O)N(CC(=O)NO)C1=O)C1CC3CC(C1)CC2C3 (stereo partly drawn) [Compound 1d]	–	–	–	0.283 µM	–
CN1CC(=O)N(CC(=O)NO)C(=O)C12CCCCCCC2 [Compound 4b]	–	–	–	0.158 µM	–
CN(CC(=O)NO)C(=O)CN1C(=O)CNC2(C1=O)C1CC3CC(C1)CC2C3 (stereo not drawn) [Compound 21]	285	1.33 ± 0.11 µM	3.42 ± 0.85 µM	–	IC50 at 6 days [2]: 376 ± 7 µM; times more potent than the nonmethylated counterpart [3]: 19 fold
O=C(CN1C(=O)[C@@H](Cc2ccccc2)NC2(C1=O)C1CC3CC(C1)CC2C3)NO (stereo partly drawn) [Compound 1g]	–	–	–	0.0091 µM	–
O=C(CNC(=O)CN1C(=O)CNC2(CCCCCCC2)C1=O)NO [Compound 24]	–	> 300 µM	> 300 µM	–	trypanocidal activity (in words) [3]: inactive
O=C(CNC(=O)CN1C(=O)CNC2(CCCCCC2)C1=O)NO [Compound 27]	–	> 30 µM	–	–	trypanocidal activity (in words) [3]: inactive
CN(CC(=O)NO)C(=O)CN1C(=O)CNC2(CCCCCCC2)C1=O [Compound 26]	–	38 ± 8 µM	–	–	times more potent than the nonmethylated counterpart [3]: > 8 fold
O=C(CN1C(=O)CNC2(CCCCCCC2)C1=O)NO [Compound 4a]	–	–	–	0.3 µM	–
CC(C)C[C@@H]1NC2(CCCCCCC2)C(=O)N(CC(=O)NCC(=O)NO)C1=O.Cl [Compound 25.HCl]	295	–	–	–	IC50 [1]: 249 µM; IC50 [3]: 0.85 µM; IC90 [3]: 1.71 µM
CN(CC(=O)NO)C(=O)CN1C(=O)[C@H](Cc2ccccc2)NC2(C1=O)C1CC3CC(C1)CC2C3 (stereo partly drawn) [Compound 23]	470	0.053 ± 0.011 µM	0.081 ± 0.003 µM	–	IC50 at 6 days [2]: 25 ± 2 µM; times more potent than 18 [3]: 472 fold; times more potent than the nonmethylated counterpart [3]: 23 fold
C[C@@H]1NC2(CCCCCCC2)C(=O)N(CC(=O)NO)C1=O [Compound 4c]	–	–	–	0.125 µM	–
CN1CC(=O)N(CC(=O)NO)C(=O)C12C1CC3CC(C1)CC2C3 (stereo not drawn) [Compound 1b]	–	–	–	0.193 µM	–
O=C(CN1C(=O)CNC2(C1=O)C1CC3CC(C1)CC2C3)NO (stereo not drawn) [Compound 1a]	–	–	–	0.09 µM	–
CC(C)C[C@@H]1NC2(CCCCCCC2)C(=O)N(CC(=O)NO)C1=O [Compound 4d]	–	–	–	0.072 µM	–
CC(C)C[C@@H]1NC2(C(=O)N(CC(=O)N(C)CC(=O)NO)C1=O)C1CC3CC(C1)CC2C3 (stereo partly drawn) [Compound 22]	940	0.034 ± 0.002 µM	0.057 ± 0.005 µM	–	IC50 at 6 days [2]: 32 ± 3 µM; times more potent than 18 [3]: 735 fold; times more potent than the nonmethylated counterpart [3]: 12 fold
CC(C)C[C@@H]1NC2(CCCCCCC2)C(=O)N(CC(=O)NCC(=O)NO)C1=O [Compound 25]	185	1.19 ± 0.28 µM	1.9 ± 0.1 µM	–	IC50 at 6 days [2]: 223 ± 28 µM; times more potent than the unsubstituted parent [3]: > 252 fold
